Results from PubChem BioAssay (NCI).
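Briefly, cells in 96-well plates were exposed to five compound concentrations for 48 h, and endpoints were estimated by linear interpolation. GI50 marks 50% less growth. TGI: total growth inhibition.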

Assays:
Assay in all cases: NCI-60 cell line screen, 48 h
[1] = system: NCI/ADR-RES ovarian
[2] = system: NCI-H23 lung
[3] = system: MALME-3M melanoma
[4] = system: CAKI-1 renal
[5] = system: IGROV1 ovarian
[6] = system: A498 renal
[7] = system: K-562 leukemia
[8] = system: HCT-116 colon
[9] = system: HCC-2998 colon
[10] = system: 786-0 renal
[11] = system: CCRF-CEM leukemia
[12] = system: OVCAR-3 ovarian
[13] = system: PC-3 prostate
[14] = system: MDA-MB-435
[15] = system: HOP-62 NSCLC
[16] = system: MCF7 breast
[17] = system: DU-145 prostate
[18] = system: BT-549 breast
[19] = system: A549 NSCLC
[20] = system: NCI-H522 lung
[21] = system: RPMI-8226 leukemia
[22] = system: SNB-75 CNS
[23] = system: SK-MEL-5 melanoma
[24] = system: HS 578T breast
[25] = system: UACC-257 melanoma
[26] = system: OVCAR-8 ovarian
[27] = system: HL-60(TB) leukemia
[28] = system: SW-620 colon
[29] = system: MDA-MB-231 breast
[30] = system: SF-295 CNS
[31] = system: SNB-19 CNS
[32] = system: SF-268 CNS
[33] = system: M14 melanoma
[34] = system: MOLT-4 leukemia
[35] = system: COLO 205 colon
[36] = system: ACHN renal
[37] = system: KM12 colon
[38] = system: SN12C renal
[39] = system: HCT-15 colon
[40] = system: LOX IMVI melanoma
[41] = system: OVCAR-5 ovarian
[42] = system: UACC-62 melanoma
[43] = system: SR leukemia
[44] = system: SF-539 CNS
[45] = system: SK-MEL-28 melanoma
[46] = system: T-47D breast
[47] = system: SK-MEL-2 melanoma
[48] = system: NCI-H460 lung
[49] = system: NCI-H226 lung
[50] = system: HT29 colon
[51] = system: U251 CNS
[52] = system: SK-OV-3 ovarian
[53] = system: TK-10 renal
[54] = system: UO-31 renal
[55] = system: OVCAR-4 ovarian
[56] = system: HOP-92 NSCLC

## CN(C)CCCNCc1ccc(-c2ccc(F)c(Cl)c2)o1
[1]
  GI50: 15.7 µM
  TGI: 33.4 µM
[2]
  GI50: 14.7 µM
  TGI: 31.5 µM
[3]
  GI50: 16 µM
  TGI: 33.5 µM
[4]
  GI50: 12.6 µM
  TGI: 27.3 µM
[5]
  GI50: 13.5 µM
  TGI: 32.2 µM
[6]
  GI50: 3.22 µM
  TGI: 18.7 µM
[7]
  GI50: 3.06 µM
  TGI: 10.2 µM
[8]
  GI50: 8.33 µM
  TGI: 25 µM
[9]
  GI50: 13 µM
  TGI: 25.9 µM
[10]
  GI50: 10.8 µM
  TGI: 23.7 µM
[11]
  GI50: 9.71 µM
  TGI: 26.3 µM
[12]
  GI50: 15.4 µM
  TGI: 29.8 µM
[13]
  GI50: 12.2 µM
  TGI: 26.5 µM
[14]
  GI50: 5.58 µM
  TGI: 20.5 µM
[15]
  GI50: 14.5 µM
  TGI: 28.2 µM
[16]
  GI50: 10.1 µM
  TGI: 23.4 µM
[17]
  GI50: 16.6 µM
  TGI: 30.6 µM
[18]
  GI50: 11.8 µM
  TGI: 26 µM
[19]
  GI50: 16.1 µM
  TGI: 31.8 µM
[20]
  GI50: 13.6 µM
  TGI: 30 µM
[21]
  GI50: 10.7 µM
  TGI: 29.9 µM
[22]
  GI50: 1.23 µM
  TGI: 18.1 µM
[23]
  GI50: 3.69 µM
  TGI: 13.9 µM
[24]
  GI50: 10.3 µM
  TGI: 26.8 µM
[25]
  GI50: 3.81 µM
  TGI: 13.8 µM
[26]
  GI50: 16.2 µM
  TGI: 36.5 µM
[27]
  GI50: 14.1 µM
  TGI: 30.7 µM
[28]
  GI50: 14 µM
  TGI: 30.3 µM
[29]
  GI50: 9.89 µM
  TGI: 22.3 µM
[30]
  GI50: 14.3 µM
  TGI: 31.2 µM
[31]
  GI50: 15.3 µM
  TGI: 32.8 µM
[32]
  GI50: 12.1 µM
  TGI: 24.8 µM
[33]
  GI50: 7.2 µM
  TGI: 22 µM
[34]
  GI50: 11.5 µM
  TGI: 28 µM
[35]
  GI50: 4.52 µM
  TGI: 15.5 µM
[36]
  GI50: 15.9 µM
  TGI: 32.7 µM
[37]
  GI50: 14.5 µM
  TGI: 29.2 µM
[38]
  GI50: 12.1 µM
  TGI: 26.6 µM
[39]
  GI50: 12.2 µM
  TGI: 32.4 µM
[40]
  GI50: 5.23 µM
  TGI: 18.2 µM
[41]
  GI50: 15.5 µM
  TGI: 33.6 µM
[42]
  GI50: 1.88 µM
  TGI: 3.79 µM
[43]
  GI50: 2.96 µM
  TGI: 8.37 µM
[44]
  GI50: 12.9 µM
  TGI: 27.9 µM
[45]
  GI50: 10.2 µM
  TGI: 22.1 µM
[46]
  GI50: 11.8 µM
  TGI: 28.3 µM
[47]
  GI50: 15.9 µM
  TGI: 31.2 µM
[48]
  GI50: 14.3 µM
  TGI: 29.8 µM
[49]
  GI50: 16.8 µM
  TGI: 35 µM
[50]
  GI50: 6.18 µM
  TGI: 20.4 µM
[51]
  GI50: 14.4 µM
  TGI: 30.7 µM
[52]
  GI50: 16.9 µM
  TGI: 31.1 µM
[53]
  GI50: 16.3 µM
  TGI: 31.5 µM
[54]
  GI50: 12.3 µM
  TGI: 26.9 µM
[55]
  GI50: 13 µM
  TGI: 35.8 µM
[56]
  GI50: 3.06 µM
  TGI: 20 µM

## C=C1C(=O)O[C@H]2[C@H]1CC/C(COC(=O)CCCC(=O)OC/C1=C/CC[C@@]3(C)O[C@H]3[C@H]3OC(=O)C(=C)[C@@H]3CC1)=C\CC[C@@]1(C)O[C@@H]21
[1]
  GI50: 4.63 µM
  TGI: > 100 µM
[2]
  GI50: 2.28 µM
  TGI: 6.67 µM
[5]
  GI50: 1.66 µM
  TGI: 4.54 µM
[6]
  GI50: 5.58 µM
  TGI: 19 µM
[8]
  GI50: 1.29 µM
  TGI: 2.57 µM
[9]
  GI50: 2.07 µM
  TGI: 4.22 µM
[10]
  GI50: 1.35 µM
  TGI: 2.79 µM
[11]
  GI50: 0.281 µM
  TGI: 0.757 µM
[12]
  GI50: 0.401 µM
  TGI: 1.52 µM
[13]
  GI50: 2.86 µM
  TGI: 8.37 µM
[14]
  GI50: 1.69 µM
  TGI: 5.18 µM
[15]
  GI50: 3.31 µM
  TGI: 16 µM
[16]
  GI50: 0.5 µM
  TGI: 2.43 µM
[17]
  GI50: 1.45 µM
  TGI: 2.77 µM
[18]
  GI50: 1.37 µM
  TGI: 2.95 µM
[19]
  GI50: 4.46 µM
  TGI: 41.7 µM
[20]
  GI50: 0.678 µM
  TGI: 2.34 µM
[21]
  GI50: 0.362 µM
  TGI: 1.5 µM
[22]
  GI50: 2.84 µM
  TGI: > 100 µM
[23]
  GI50: 2.25 µM
  TGI: 5.68 µM
[24]
  GI50: 3.42 µM
  TGI: > 100 µM
[25]
  GI50: 2 µM
  TGI: 4.97 µM
[27]
  GI50: 0.274 µM
  TGI: 1.39 µM
[28]
  GI50: 0.608 µM
  TGI: 2.04 µM
[29]
  GI50: 1.39 µM
  TGI: 2.9 µM
[30]
  GI50: 4.71 µM
  TGI: > 100 µM
[31]
  GI50: 2.91 µM
  TGI: 14.4 µM
[32]
  GI50: 2.77 µM
  TGI: 15.1 µM
[33]
  GI50: 1.72 µM
  TGI: 4.51 µM
[34]
  GI50: 0.396 µM
  TGI: 2.07 µM
[35]
  GI50: 0.592 µM
  TGI: 2.15 µM
[36]
  GI50: 0.764 µM
  TGI: 2.03 µM
[37]
  GI50: 2.24 µM
  TGI: 6.85 µM
[38]
  GI50: 2.3 µM
  TGI: 6.92 µM
[39]
  GI50: 0.814 µM
  TGI: 2.35 µM
[40]
  GI50: 1.04 µM
  TGI: 2.31 µM
[42]
  GI50: 1.54 µM
  TGI: 4.53 µM
[43]
  GI50: 0.501 µM
  TGI: 3.45 µM
[46]
  GI50: 1.19 µM
  TGI: 3.81 µM
[47]
  GI50: 2.18 µM
  TGI: 6.5 µM
[48]
  GI50: 3.18 µM
  TGI: 12.7 µM
[50]
  GI50: 0.752 µM
  TGI: 2.16 µM
[51]
  GI50: 2.92 µM
  TGI: 10.3 µM
[52]
  GI50: 9.89 µM
  TGI: > 100 µM
[53]
  GI50: 1.53 µM
  TGI: 3.04 µM
[54]
  GI50: 1.11 µM
  TGI: 2.31 µM
[56]
  GI50: 1.87 µM
  TGI: 3.65 µM
